The test system of series [1] is ivPTZ seizure threshold in mice. As to the kind of experiment: Timed ivPTZ seizure threshold test. To be noted: 50 mg/kg i.p., 0.5 h before test; for increase of threshold for generalized clonus with loss of righting reflex / increase of threshold for the first myoclonic twitch: vs control. The format is in vivo. As to the method: (§1) In studies assessing the acute effect of compounds 53 and 60 on the ivPTZ seizure threshold and neuromuscular strength, compounds 53 and 60 was suspended in a 1% solution of Tween 80 and administered i.p., at a dose of 10 mL/kg body weight. Each experimental group consisted of 9–12 animals (ivPTZ seizure threshold test) or 9−10 animals (grip strength test). The timed ivPTZ test was employed to evaluate the acute effect of compounds 53 and 60 on the seizure thresholds for (1) the first myoclonic twitch, (2) generalized clonic seizure with loss of righting reflex, and (3) forelimb tonus. The experimental procedure of the timed ivPTZ test was described in detail elsewhere. The acute effect of compounds 53 and 60 on neuromuscular strength was quantified using the grip-strength apparatus (BIOSEB, Chaville, France) according to the method that is described elsewhere. The results are depicted in Figure 2 (ivPTZ seizure threshold test, see Section 3 Results and Discussion) and Figure 3 (grip strength test, see Section 3 Results and Discussion).
The timed ivPTZ test was employed to further evaluate the effects of compounds 53 and 60 on seizure susceptibility in mice. The ivPTZ seizure test is an extremely sensitive method for assessing seizure thresholds in rodents. In this method, the threshold PTZ dose for several seizure endpoints was determined.
Figure 2 Acute effects of 53 and 60 on the threshold for the first myoclonic twitch (A), generalized clonus (B), and forelimb tonus (C) in the ivPTZ seizure threshold test in mice. Compounds 53 and 60 were administered i.p. 0.5 h before the seizure test. Control animals received vehicle only. Each experimental group consisted of 9–12 animals. Each bar represents the mean (mg/kg PTZ) + SEM. ** p < 0.01, *** p < 0.001, **** p < 0.0001 vs. the control group (Student’s t-test).

A short description of series [2]: Neurotoxicity, SH-SY5Y viability (MTS). The format is cell-based. To be noted: human, SH-SY5Y neuroblastoma cells, 10 and 50 µM, read-out: SH-SY5Y cell viability, % of the control. The method, then:
Moreover, the dose-dependent increase in the cells viability was found during the repeated experiment in lower concentrations (Figure 8B). […] Thus, the observed influence of this chemical group for neuronal cells is worth further detailed exploration.
Figure 8 The effect of 53 and the cytostatic drug doxorubicin (DX) on neuroblastoma SH-SY5Y cell line viability after 72 h of incubation at 37 °C, 5% CO2 in the concentration range 1–100 µM (A) and 0.001–1 µM (B). The data were analyzed with one-way ANOVA, followed by Bonferroni’s Comparison Test (Graph Pad Prism 8.0.1 software, San Diego, CA, USA)): *** p < 0.001, **** p < 0.0001 vs. negative control (DMSO 1% in growth media).

For another series, the system named is mice. As to the kind of experiment: Grip strength test (neuromuscular strength). Type of series: in vivo. To be noted: 50 mg/kg i.p., 0.5 h. The method, then:
as §1
Figure 3 Acute effects of 53 and 60 on the neuromuscular strength in mice. Compounds 53 and 60 were administered i.p. 0.5 h before the seizure test. Control animals received vehicle only. Each experimental group consisted of 9–10 animals. Each bar represents the mean + SEM grip strengths in millinewtons per gram of mouse body weight (mN/g).

The next series addresses T1, recombinant human CYP2C9 (Homo sapiens, UniProt P11712).
T1 construct: purchased Promega (Madison, WI, USA)
As to the kind of experiment: CYP2C9 P450-Glo luminescent assay. The format is in vitro ADME. The method, then: The risk of potential DDIs was predicted with use of luminescent CYP3A4, 2D6, and 2C9 P450-Glo assays (Figure 6). […] However, such an effect was also observed in our previous studies for other pyrrolidine-2,5-dione derivatives. […] However, the potential risk of DDI of 60 was still assessed as very low, and was compared to the selective CYP2C9 inhibitor sulfaphenazole (Figure 6C).
The data were analyzed with one-way ANOVA, followed by Bonferroni’s Multiple Comparison Post Test (Graph Pad Prism 8.0.1 software, San Diego, CA, USA)): * p < 0.05, ** p < 0.01, *** p < 0.001 **** p < 0.0001. The compounds were examined in triplicate.

The test system of a further series is Na+ channel (site 2). As to the kind of experiment: Na+ channel (site 2) radioligand binding. To be noted: rat cerebral cortex.
For another series, the target named is T2, hERG (Homo sapiens, UniProt Q12809).
T2 construct: Eurofins
T2 sequence (Q12809 whole entry): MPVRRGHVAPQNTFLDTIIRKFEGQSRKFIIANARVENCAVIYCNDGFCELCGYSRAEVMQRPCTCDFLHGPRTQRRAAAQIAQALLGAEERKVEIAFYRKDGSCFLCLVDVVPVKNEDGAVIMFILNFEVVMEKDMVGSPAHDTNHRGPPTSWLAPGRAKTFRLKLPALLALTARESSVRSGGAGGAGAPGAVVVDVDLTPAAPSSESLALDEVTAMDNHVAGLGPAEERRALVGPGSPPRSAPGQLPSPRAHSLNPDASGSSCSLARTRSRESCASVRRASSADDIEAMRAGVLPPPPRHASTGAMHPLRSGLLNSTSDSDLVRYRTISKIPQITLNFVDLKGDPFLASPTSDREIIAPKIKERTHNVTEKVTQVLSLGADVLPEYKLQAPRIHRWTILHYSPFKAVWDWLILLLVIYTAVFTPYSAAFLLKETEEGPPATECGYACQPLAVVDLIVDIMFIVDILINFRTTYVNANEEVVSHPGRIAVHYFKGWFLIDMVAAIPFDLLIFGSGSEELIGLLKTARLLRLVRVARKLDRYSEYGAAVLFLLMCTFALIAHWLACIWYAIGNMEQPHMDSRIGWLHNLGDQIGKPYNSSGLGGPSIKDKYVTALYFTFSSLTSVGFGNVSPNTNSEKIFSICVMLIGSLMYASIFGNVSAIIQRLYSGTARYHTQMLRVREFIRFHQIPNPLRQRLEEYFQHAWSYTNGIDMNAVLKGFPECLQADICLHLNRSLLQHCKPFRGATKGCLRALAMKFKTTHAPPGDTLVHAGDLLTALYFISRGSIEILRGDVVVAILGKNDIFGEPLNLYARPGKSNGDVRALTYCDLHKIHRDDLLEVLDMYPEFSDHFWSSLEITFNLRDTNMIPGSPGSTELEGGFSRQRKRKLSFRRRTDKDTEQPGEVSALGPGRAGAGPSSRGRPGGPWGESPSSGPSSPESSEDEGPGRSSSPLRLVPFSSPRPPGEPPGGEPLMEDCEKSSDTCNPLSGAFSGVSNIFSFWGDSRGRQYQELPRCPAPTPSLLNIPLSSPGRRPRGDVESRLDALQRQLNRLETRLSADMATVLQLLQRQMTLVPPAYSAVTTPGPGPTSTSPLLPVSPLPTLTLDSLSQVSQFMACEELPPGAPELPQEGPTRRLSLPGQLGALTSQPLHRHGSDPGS
As to the kind of experiment: Potassium channel (hERG) binding. To be noted: human recombinant HEK-293 cells expressing hERG, human recombinant HEK-293 cell, read-out: % Inhibition of Control Specific Binding, hERG. The method, then:
(§2) Binding/functional studies were carried out commercially in Eurofins Laboratories (Poitiers, France) and Eurofins Panlabs Discovery Services Taiwan, Ltd. (New Taipei City, Taiwan) using testing procedures that were reported previously (for details see Table S2).
(§3) Table S2. Radioligand binding and functional assays. […]
Potassium channel (hERG)
(§4) TRPV1 (VR1) (h) (antagonist effect) […]
(§5) Assays were performed commercially in Eurofins Laboratories (Poitiers, France) or Eurofins Panlabs Discovery
(§6) Services Taiwan, Ltd. (New Taipei City, Taiwan). […]

A further series has as its system NMDA receptor. Description: NMDA binding (antagonist radioligand). To be noted: 100 µM; rat cerebral cortex. As to the method: as §2, §3
NMDA (antagonist radioligand) […]
as §4, §5, §6

The target in another series is T3, TRPV1 (VR1) (h) (Homo sapiens, UniProt Q8NER1).
T3 construct: host or cells: CHO
T3 sequence (Q8NER1 whole entry): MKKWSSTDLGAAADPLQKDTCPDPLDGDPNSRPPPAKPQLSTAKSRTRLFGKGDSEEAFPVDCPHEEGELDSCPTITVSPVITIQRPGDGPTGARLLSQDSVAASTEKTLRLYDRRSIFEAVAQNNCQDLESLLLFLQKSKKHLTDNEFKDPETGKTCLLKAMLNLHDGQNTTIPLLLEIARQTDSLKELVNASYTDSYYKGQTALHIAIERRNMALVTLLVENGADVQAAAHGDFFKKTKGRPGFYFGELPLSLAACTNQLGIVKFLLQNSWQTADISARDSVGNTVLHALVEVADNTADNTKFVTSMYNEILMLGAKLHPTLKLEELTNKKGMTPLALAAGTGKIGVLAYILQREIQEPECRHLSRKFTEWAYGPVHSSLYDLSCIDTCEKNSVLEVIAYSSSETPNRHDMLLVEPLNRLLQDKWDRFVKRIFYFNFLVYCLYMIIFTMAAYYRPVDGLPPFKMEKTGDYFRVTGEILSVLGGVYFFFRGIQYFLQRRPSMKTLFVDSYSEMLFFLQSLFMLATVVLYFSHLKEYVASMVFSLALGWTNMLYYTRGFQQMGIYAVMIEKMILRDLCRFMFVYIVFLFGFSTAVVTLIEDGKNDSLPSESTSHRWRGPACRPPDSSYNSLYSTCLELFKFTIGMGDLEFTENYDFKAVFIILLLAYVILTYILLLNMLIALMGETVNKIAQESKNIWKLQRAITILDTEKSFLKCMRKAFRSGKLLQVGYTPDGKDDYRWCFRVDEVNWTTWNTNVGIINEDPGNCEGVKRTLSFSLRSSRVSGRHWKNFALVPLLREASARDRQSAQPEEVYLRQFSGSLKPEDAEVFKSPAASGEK
As to the kind of experiment: TRPV1 (VR1) (h) antagonist effect functional assay. Type of series: cell-based. To be noted: human recombinant CHO cells.

A further series has as its system hepatoma HepG2 cell line. As to the kind of experiment: Hepatotoxicity, HepG2 viability (MTS). To be noted: 72 h treatment. The format is cell-based. As to the method:
Figure 7 The effect of 53, 60, and 62, cytostatic drug doxorubicin (DX) and the mitochondrial toxin CCCP on the hepatoma HepG2 cell line viability after 72 h of incubation at 37 °C, 5% CO2. The data were analyzed with one-way ANOVA, followed by Bonferroni’s Comparison Test (Graph Pad Prism 8.0.1 software, San Diego, CA, USA)): ** p < 0.01, **** p < 0.0001 vs. negative control (DMSO 1% in growth media).

The target in series [3] is T4, Cav1.2 (h) calcium ion channel (Homo sapiens, UniProt Q13936).
T4 construct: Eurofins
As to the kind of experiment: Cav1.2 (h) calcium ion channel cell-based antagonist calcium flux assay. To be noted: HEK293, human recombinant HEK-293 cell, read-out: % Inhibition of control agonist response, Cav1.2 calcium flux. The method, then: as §2, §3
TRPV1 (VR1) (h) (antagonist effect)
Cav1.2 (L-type) (h) calcium ion channel cell-based antagonist calcium flux assay
as §5, §6

The target in another series is T5, N-type Ca^2+ channel (Rattus norvegicus, UniProt Q02294).
T5 construct: Rat cerebral cortex; tissue Eurofins; host or cells: rat cerebral cortex
Description: N-type Ca2+ channel binding (antagonist radioligand). To be noted: rat cerebral cortex, read-out: % Inhibition of Control Specific Binding, N-type Ca2+. The method, then: as §2, §3
N-type Ca2+ (antagonist radioligand) […]
as §4, §5, §6

T1 sequence (P11712 whole entry): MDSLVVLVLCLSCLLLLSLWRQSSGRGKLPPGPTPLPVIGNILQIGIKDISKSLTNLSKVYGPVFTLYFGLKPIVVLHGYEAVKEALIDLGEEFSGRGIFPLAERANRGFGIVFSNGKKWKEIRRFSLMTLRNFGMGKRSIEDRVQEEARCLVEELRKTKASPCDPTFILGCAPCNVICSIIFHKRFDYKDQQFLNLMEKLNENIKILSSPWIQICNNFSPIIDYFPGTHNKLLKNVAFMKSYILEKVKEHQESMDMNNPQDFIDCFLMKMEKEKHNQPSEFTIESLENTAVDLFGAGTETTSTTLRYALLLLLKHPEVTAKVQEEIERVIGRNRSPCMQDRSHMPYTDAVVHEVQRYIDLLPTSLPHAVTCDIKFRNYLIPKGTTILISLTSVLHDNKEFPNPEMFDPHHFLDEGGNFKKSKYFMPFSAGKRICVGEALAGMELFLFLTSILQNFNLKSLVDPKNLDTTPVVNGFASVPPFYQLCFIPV

Turning to `CC(=O)NC(C(=O)N1CCN(c2cccc(C(F)(F)F)c2)CC1)c1ccccc1` (stereo not shown) [Compound 53, N-(2-oxo-1-phenyl-2-(4-(3-(trifluoromethyl)phenyl)piperazin-1-yl)ethyl)acetamide], in series [1], the “effect on threshold for forelimb tonus” value was “did not, however, produce any significant effect”; the “increase of threshold for generalized clonus with loss of righting reflex” value was ~ 40%; the “increase of threshold for the first myoclonic twitch” value was ~ 50%. Besides, the viability at 72 h in series [2] was ≤ 140%. Also, the “effect on neuromuscular strength (grip strength)” value in the series with mice is recorded as “did not significantly affect”. Besides, on recombinant human CYP2C9, the “influence on CYP2C9 activity” value was “weak inhibition effect”. In the series on Na+ channel (site 2) (10 µM), the “% Inhibition of Control Specific Binding, Na+ channel (site 2)” value (from here on “% Inhibition … (site 2)”) worked out at 17.4%. In addition, the “% Inhibition … (site 2)” value with Na+ channel (site 2) (100 µM) is 75.5%. Moreover, the inhibition at 100 µM on hERG is 24%. Also, the “% Inhibition of Control Specific Binding, NMDA” value in the series on NMDA receptor is 9.0 (100) %. Also, on TRPV1 (VR1) (h), the IC50 was found to be 13 µM and the antagonist dissociation constant (Kb) stood at 1.7 µM. Moreover, in the series with hepatoma HepG2 cell line, the “effect on HepG2 cell viability (hepatotoxicity)” value was “observed only at 100 µM”. The inhibition at 10 µM in series [3] came out at 55%. Moreover, the inhibition at 100 µM on N-type Ca^2+ channel was 1.5%.

`CC(=O)NC(C(=O)N1CCN(c2cccc(OC(F)(F)F)c2)CC1)c1ccccc1` (stereo not shown) [Compound 60, N-(2-oxo-1-phenyl-2-(4-(3-(trifluoromethoxy)phenyl)piperazin-1-yl)ethyl)acetamide]: in [1], the “effect on threshold for forelimb tonus” value is listed as “devoid of any significant effects”, the “increase of threshold for generalized clonus with loss of righting reflex” value is “devoid of any significant effects” and the “increase of threshold for the first myoclonic twitch” value is recorded as ~ 20%. Moreover, the “effect on neuromuscular strength (grip strength)” value with mice is “did not significantly affect”. For the same compound, at recombinant human CYP2C9, the “influence on CYP2C9 activity” value is “a little stronger influence, observed also at 10 µM”. Moreover, the “% Inhibition … (site 2)” value in the series with Na+ channel (site 2) (10 µM) is listed as 37.0 (10) %. Also, at TRPV1 (VR1) (h), the IC50 was determined as 11 µM and the antagonist equilibrium constant (Kb) came out at 1.5 µM. Also, the “effect on HepG2 cell viability (hepatotoxicity)” value in the series on hepatoma HepG2 cell line is “observed only at 100 µM”. In addition, the inhibition at 10 µM in [3] was determined as 31%.

Values taken from article PMC9221546, “New Phenylglycinamide Derivatives with Hybrid Structure as Candidates for New Broad-Spectrum Anticonvulsants” (Cells, 2022).
